Assay results as given in patent US8252832B2, “Kinesin inhibitors as cancer therapeutics” (Novartis AG, priority 2007, dated 2012).
Like-named read-outs stand apart in the source and are kept apart here.

Tested on: panel of cell lines and tumor explants
Experiment: Soft agar (clonogenic) assay on cell lines and tumor explants
Format: cell-based, human
Conditions: Homo sapiens
Method: Compound IIa was tested against a panel of cell lines and tumor explants in a soft agar assay as described in Fiebig, H. H., Maier, A., and Burger, A. M. (Clonogenic assay with established human tumour xenorafts: correlation of in vitro to in vivo activity as a basis for anticancer drug discovery, Eur. J. Cancer 40, 802-820 (2004).) Table 16 lists the type of cancer, the name of the sample, its GI50 (concentration needed to achieve 50% growth inhibition) value in the assay, the logarithm of the GI50 (log(GI50), and the relative sensitivity of each sample (Differential). The differential is calculated by subtracting the log(GI50) for each cell line from the average log(GI50) across the entire panel (0.236 in this case); a positive value indicates a sample that is more sensitive than average, whereas a negative value indicates a sample that is less sensitive than average.

Question: Which results are given for CC(C)(C)[C@H](c1nc(-c2cc(F)ccc2F)cn1Cc1ccccc1)N(CC[C@H](N)CF)C(=O)CO [Compound IIa]?
Answer: GI50 (Breast, sample 1162, read-out: GI50): 0.286 nM; GI50 (Breast, sample 1322, GI50 in nM, read-out: log(GI50) (converted)): 1.4 nM; GI50 (Breast, sample 1322, read-out: GI50): 1.4 nM; GI50 (Breast, sample 1384, GI50 in nM, read-out: log(GI50) (converted)): 2.67 nM; GI50 (Breast, sample 1384, read-out: GI50): 2.67 nM; GI50 (Breast, sample 1398, GI50 in nM, read-out: log(GI50) (converted)): 0.239 nM; GI50 (Breast, sample 1398, read-out: GI50): 0.239 nM; GI50 (CCRF-CEM, Leukemia (ALL), sample CCRFCEM, GI50 in nM, read-out: log(GI50) (converted)): 0.287 nM; GI50 (CCRF-CEM, Leukemia (ALL), sample CCRFCEM, read-out: GI50): 0.287 nM; GI50 (Colorectal, sample 94LX, GI50 in nM, read-out: log(GI50) (converted)): 19.5 nM; GI50 (Colorectal, sample 94LX, read-out: GI50): 19.5 nM; GI50 (Colorectal, sample 158, GI50 in nM, read-out: log(GI50) (converted)): ≥ 10 nM; GI50 (Colorectal, sample 158, read-out: GI50): 10 nM; GI50 (Colorectal, sample 233, GI50 in nM, read-out: log(GI50) (converted)): 0.238 nM; GI50 (Colorectal, sample 233, read-out: GI50): 0.238 nM; GI50 (Colorectal, sample 243, GI50 in nM, read-out: log(GI50) (converted)): ≥ 10 nM; GI50 (Colorectal, sample 243, read-out: GI50): 10 nM; GI50 (Colorectal, sample 260, GI50 in nM, read-out: log(GI50) (converted)): ≥ 10 nM; GI50 (Colorectal, sample 260, read-out: GI50): 10 nM; GI50 (Colorectal, sample 268, GI50 in nM, read-out: log(GI50) (converted)): 6.24 nM; GI50 (Colorectal, sample 268, read-out: GI50): 6.24 nM; GI50 (Colorectal, sample 280, GI50 in nM, read-out: log(GI50) (converted)): ≥ 10 nM; GI50 (Colorectal, sample 280, read-out: GI50): 10 nM; GI50 (Colorectal, sample 504, GI50 in nM, read-out: log(GI50) (converted)): 0.273 nM; GI50 (Colorectal, sample 504, read-out: GI50): 0.273 nM; GI50 (Colorectal, sample 533, GI50 in nM, read-out: log(GI50) (converted)): 1.75 nM; GI50 (Colorectal, sample 533, read-out: GI50): 1.75 nM; GI50 (Colorectal, sample 609, GI50 in nM, read-out: log(GI50) (converted)): ≥ 10 nM; GI50 (Colorectal, sample 609, read-out: GI50): 10 nM; GI50 (Colorectal, sample 647, GI50 in nM, read-out: log(GI50) (converted)): ≥ 10 nM; GI50 (Colorectal, sample 647, read-out: GI50): 10 nM; GI50 (Colorectal, sample 676, GI50 in nM, read-out: log(GI50) (converted)): ≥ 10 nM; GI50 (Colorectal, sample 676, read-out: GI50): 10 nM; GI50 (Colorectal, sample 742, GI50 in nM, read-out: log(GI50) (converted)): 1.87 nM; GI50 (Colorectal, sample 742, read-out: GI50): 1.87 nM; GI50 (Colorectal, sample 975, GI50 in nM, read-out: log(GI50) (converted)): ≥ 10 nM; GI50 (Colorectal, sample 975, read-out: GI50): 10 nM; GI50 (Colorectal, sample 1034, GI50 in nM, read-out: log(GI50) (converted)): 0.214 nM; GI50 (Colorectal, sample 1034, read-out: GI50): 0.214 nM; GI50 (Colorectal, sample 1044, GI50 in nM, read-out: log(GI50) (converted)): 0.612 nM; GI50 (Colorectal, sample 1044, read-out: GI50): 0.612 nM; GI50 (Colorectal, sample 1103, GI50 in nM, read-out: log(GI50) (converted)): 1 nM; GI50 (Colorectal, sample 1103, read-out: GI50): 1 nM; GI50 (Colorectal, sample 1297, GI50 in nM, read-out: log(GI50) (converted)): ≥ 10 nM; GI50 (Colorectal, sample 1297, read-out: GI50): 10 nM; GI50 (Colorectal, sample 1299, GI50 in nM, read-out: log(GI50) (converted)): ≥ 10 nM; GI50 (Colorectal, sample 1299, read-out: GI50): 10 nM; GI50 (Colorectal, sample 1729, GI50 in nM, read-out: log(GI50) (converted)): ≥ 10 nM; GI50 (Colorectal, sample 1729, read-out: GI50): 10 nM; GI50 (Colorectal, sample 1753, GI50 in nM, read-out: log(GI50) (converted)): 11.3 nM; GI50 (Colorectal, sample 1753, read-out: GI50): 11.3 nM; GI50 (Colorectal, sample 1783, GI50 in nM, read-out: log(GI50) (converted)): 0.721 nM; GI50 (Colorectal, sample 1783, read-out: GI50): 0.721 nM; GI50 (Colorectal, sample 1784, GI50 in nM, read-out: log(GI50) (converted)): 5.97 nM; GI50 (Colorectal, sample 1784, read-out: GI50): 5.97 nM; GI50 (Colorectal, sample 1788, GI50 in nM, read-out: log(GI50) (converted)): 2.24 nM; GI50 (Colorectal, sample 1788, read-out: GI50): 2.25 nM; GI50 (DU-145, Prostate, sample DU145, GI50 in nM, read-out: log(GI50) (converted)): 1 nM; GI50 (DU-145, Prostate, sample DU145, read-out: GI50): 1 nM; GI50 (Gastric, sample 209, GI50 in nM, read-out: log(GI50) (converted)): ≥ 10 nM; GI50 (Gastric, sample 209, read-out: GI50): 10 nM; GI50 (Gastric, sample 214, GI50 in nM, read-out: log(GI50) (converted)): 8.99 nM; GI50 (Gastric, sample 214, read-out: GI50): 9 nM; GI50 (Gastric, sample 1172, GI50 in nM, read-out: log(GI50) (converted)): ≥ 10 nM; GI50 (Gastric, sample 1172, read-out: GI50): 10 nM; GI50 (Jurkat, Leukemia (ALL), sample JURKAT, GI50 in nM, read-out: log(GI50) (converted)): 0.106 nM; GI50 (Jurkat, Leukemia (ALL), sample JURKAT, read-out: GI50): 0.106 nM; GI50 (K562, Leukemia (CML), sample K562, GI50 in nM, read-out: log(GI50) (converted)): 0.27 nM; GI50 (K562, Leukemia (CML), sample K562, read-out: GI50): 0.27 nM; GI50 (MOLT-4, Leukemia (ALL), sample MOLT4, GI50 in nM, read-out: log(GI50) (converted)): 0.877 nM
